From patent EP0430485A2, “Quinoline compound” (priority 1989, dated 1991)
Structures can show the parent of a compound that is named as a salt. Where two headings read alike, the source gives them in different places.

System: scopolamine-induced amnesia
Assay type: in vivo, Wistar male rats
Experimental: In order to show effects of the compounds according to the present invention in more detail, a part of experimental examples relating to action against scopolamine-induced amnesia for step-through passive avoidance response in rats is shown below.
Wistar male rats of 7 to 8 weeks old were used to experiment after fasting for 12 hours. Rats were divided into groups with 8 rats per group and 1.5 mg/kg of scopolamine was intraperitoneally administered. After 30 minutes from the administration, rats were placed in a light compartment of a step-through type passive avoidance apparatus constituted by two compartments (25 × 10 × 25 cm of a light compartment and 30 × 30 × 30 cm of a dark compartment having a guillotine door and a floor grid for passing current) and a latent time by entering into a dark compartment was measured. The guillotine door was shut when a rat entered into the dark compartment and shock with 0.6 mA for 3 seconds was applied through the floor grid for acquisition trial. After acquisition trial, 10 mg/kg of each test compound was orally administered to rats and returned to their home cage. After 24 hours, rats were again placed in the light compartment at which the guillotine door was opened, a latent time by entering into the dark compartment was measured whereby presence or absence of improved effect of memory retention was judged.

[1] = rats, scopolamine 1.5 mg/kg intraperitoneally, test compound 10 mg/kg p.o. after acquisition trial, latent time by entering the dark compartment measured after 24 hours, 8 rats per group

Row | Compound | Latent time of memory retention [1] [s] | Latent time of memory retention (rat, in vivo) [s]
1 | 4-Amino-5-fluoro-1-isoamyl-2,3-dihydro-1H-pyrrolo[2,3-b]quinoline·trihydrate [Example 33] | 151 | 
2 | CN1CCc2c1nc1ccccc1c2N [Example 1, 4-amino-1-methyl-2,3-dihydro-1H-pyrrolo[2,3-b] quinoline] | 128 | 
3 | CCCCCCCCCCCCN1CCCCc2c1nc1cccc(F)c1c2N [Example 3, 6-amino-1-dodecyl-7-fluoro-2,3,4,5-tetrahydro-1H-azepino[2,3-b]quinoline] | 140 | 
4 | Nc1c2c(nc3ccccc13)N(Cc1ccccc1)CCCC2 [Example 10, 6-Amino-1-benzyl-2,3,4,5-tetrahydro-1H-azepino[2,3-b]-quinoline·hydrochloride] | 188 | 
5 | Nc1c2c(nc3cccc(Cl)c13)N(Cc1ccccc1)CCCC2 [Example 11, 6-Amino-1-benzyl-7-chloro-2,3,4,5-tetrahydro-1H-azepino[2,3-b]quinoline·hydrochloride] | 163 | 
6 | Nc1c2c(nc3cccc(F)c13)NCCC2 [Example 20, 5-amino-6-fluoro-1,2,3,4-tetrahydrobenzo[d] [1,8]naphthylidine] | 59 | 
7 | Nc1c2c(nc3cccc(Cl)c13)NCCC2 [Example 21, 5-amino-6-chloro-1,2,3,4-tetrahydrobenzo[b] [1,8]naphthylidine] | 117 | 
8 | Nc1c2c(nc3ccccc13)NCC2 [Example 22, 4-Amino-2,3-dihydro-1H-pyrrolo[2,3-b]quinoline·hydrobromide] | 78 | 
9 | CC(=O)N1CCCc2c1nc1cccc(F)c1c2N [Example 24, 1-acetyl-5-amino-6-fluoro-1,2,3,4-tetrahydrobenzo[b] [1,8]naphthylidine] | 168 | 
10 | Nc1c2c(nc3cccc(F)c13)N(C(=O)c1ccccc1)CCC2 [Example 26] | 84 | 
11 | Nc1c2c(nc3cc(Cl)ccc13)NCCC2 [Example 31, 5-Amino-8-chloro-1,2,3,4-tetrahydrobenzo[b] [1,8]naphthylidine] | 72 | 
12 | Nc1c2c(nc3ccccc13)CCCC2 [Tacrine, 9-amino-1,2,3,4-tetrahydroacridine, reference compound] |  | 58
